Patent publication US20110070232A1, “Combination Therapy with an Antitumor Alkaloid” (Pharma Mar, S.A., priority 2008, published 2011)
Where two headings read alike, the source gives them in different places.

Experiments:
MRI-H-254 tumors = format: in vivo, mice
Protocol: Female athymic nude mice (Harlan Sprague Dawley, Madison, Wis.) were utilized for all experiments. Animals were housed in ventilated rack caging with food and water ad libitum. The mice were acclimated for at least 5 days prior to tumor implantation with tumor fragments. The Vehicle Control group contained 11 mice, groups 2-6 contained 8 mice/group, and the rest of groups contained 9 mice/group.
This cell line was grown and implanted to the animals as described in Example 11.
Tumor measurements were determined as disclosed in Example 4. […] Treatments were initiated on DPI 17.
PM00104 was provided in the form of vials of lyophilized PM00104 powder which was reconstituted with water for injection.
Tumor size measurements were recorded twice weekly from the treatment initiation until the termination of the study.
Mean, standard deviation and standard error of the mean were determined for tumor volume for all animal groups at all assessments. Student's t test was performed on tumor volumes at each measurement day, including at the end of the study, to determine whether there were any statistically significant differences between combination treatment groups and single monotherapy treatment groups.
The definition and criteria for the evaluation of potentiation and the degree of additivity for the combination therapy were the same as those disclose in Example 4.

[1] = test system: BT-474 (breast cancer) cell line; assay: IC50 determination, MIT (tetrazolium) assay, 72 h (Example 18); format: cell-based; details: Homo sapiens, BT-474, 72 h
Protocol: BT-474 cells were grown in RPMI supplemented with 1% ITS (insulin, transferrin and selenium), 10% Fetal Bovine Serum (FBS), 1% penicillin/streptomycin and 2 mM L-glutamine.
Before plating, cell cultures were trypsinized and cell number estimated using an automated flow cytometer.
Cells were harvested and seeded in 96 well microtiter plates at the appropriate cell density (5,000-10,000 cells) in 150 μL of media and incubated for 24 hours to allow the cells to attach before drug addition.
After the incubation period (72 hours), 50 μL of MIT solution was added to each microtiter well and incubated for further 8 hours at 37° C. The culture medium was then removed and 50 μl, of DMSO were added to dissolve the MIT crystals. Optical densities were read at 540 nm on spectrophotometer microplate reader.
IC50 values were calculated from an average of two to four assays for each of the test agents.

[2] = PM00104 0.90 IV, doxorubicin 6 IP, paclitaxel 12.5 IP mg/kg/day (G2, G5, G6, G7, G8)

CC(=O)O[C@H]1C(=O)[C@@]2(C)[C@H]([C@H](OC(=O)c3ccccc3)[C@]3(O)C[C@H](OC(=O)[C@H](O)[C@@H](NC(=O)c4ccccc4)c4ccccc4)C(C)=C1C3(C)C)[C@]1(OC(C)=O)CO[C@@H]1C[C@@H]2O [paclitaxel]
% T/C on day 17 (MRI-H-254 tumors; [2]): 99.5%
% T/C on day 20 (MRI-H-254 tumors; [2]): 86.2%
% T/C on day 24 (MRI-H-254 tumors; [2]): 71.9%
% T/C on day 27 (MRI-H-254 tumors; [2]): 77.2%
% T/C on day 32 (MRI-H-254 tumors; [2]): 67.9%
% T/C on day 35 (MRI-H-254 tumors; [2]): 52.3%
% T/C on day 39 (MRI-H-254 tumors; [2]): 51.7%
% T/C on day 47 (MRI-H-254 tumors; [2]): 69.0%
% Inhibition (MRI-H-254 tumors; day 14, PM00104 0.23, doxorubicin 6, paclitaxel 12.5 mg/kg/day): 0.5%
% Inhibition (MRI-H-254 tumors; day 14, PM00104 0.45, doxorubicin 6, paclitaxel 12.5 mg/kg/day): 0.5%
% Inhibition (MRI-H-254 tumors; day 14, PM00104 0.90, paclitaxel 12.5 mg/kg/day): 0.5%
% Inhibition (MRI-H-254 tumors; day 20, PM00104 0.23, doxorubicin 6, paclitaxel 12.5 mg/kg/day): 13.8%
% Inhibition (MRI-H-254 tumors; day 20, PM00104 0.45, doxorubicin 6, paclitaxel 12.5 mg/kg/day): 13.8%
% Inhibition (MRI-H-254 tumors; day 20, PM00104 0.90, paclitaxel 12.5 mg/kg/day): 13.8%
% Inhibition (MRI-H-254 tumors; day 24, PM00104 0.23, doxorubicin 6, paclitaxel 12.5 mg/kg/day): 28.1%
% Inhibition (MRI-H-254 tumors; day 24, PM00104 0.45, doxorubicin 6, paclitaxel 12.5 mg/kg/day): 28.1%
% Inhibition (MRI-H-254 tumors; day 24, PM00104 0.90, paclitaxel 12.5 mg/kg/day): 28.1%
% Inhibition (MRI-H-254 tumors; day 27, PM00104 0.23, doxorubicin 6, paclitaxel 12.5 mg/kg/day): 22.8%
% Inhibition (MRI-H-254 tumors; day 27, PM00104 0.45, doxorubicin 6, paclitaxel 12.5 mg/kg/day): 22.8%
% Inhibition (MRI-H-254 tumors; day 27, PM00104 0.90, paclitaxel 12.5 mg/kg/day): 22.8%
% Inhibition (MRI-H-254 tumors; day 32, PM00104 0.23, doxorubicin 6, paclitaxel 12.5 mg/kg/day): 32.1%
% Inhibition (MRI-H-254 tumors; day 32, PM00104 0.45, doxorubicin 6, paclitaxel 12.5 mg/kg/day): 32.1%
% Inhibition (MRI-H-254 tumors; day 32, PM00104 0.90, paclitaxel 12.5 mg/kg/day): 32.1%
% Inhibition (MRI-H-254 tumors; day 35, PM00104 0.23, doxorubicin 6, paclitaxel 12.5 mg/kg/day): 47.7%
% Inhibition (MRI-H-254 tumors; day 35, PM00104 0.45, doxorubicin 6, paclitaxel 12.5 mg/kg/day): 47.7%
% Inhibition (MRI-H-254 tumors; day 35, PM00104 0.90, paclitaxel 12.5 mg/kg/day): 47.7%
% Inhibition (MRI-H-254 tumors; day 39, PM00104 0.23, doxorubicin 6, paclitaxel 12.5 mg/kg/day): 48.3%
% Inhibition (MRI-H-254 tumors; day 39, PM00104 0.45, doxorubicin 6, paclitaxel 12.5 mg/kg/day): 48.3%
% Inhibition (MRI-H-254 tumors; day 39, PM00104 0.90, paclitaxel 12.5 mg/kg/day): 48.3%
% Inhibition (MRI-H-254 tumors; day 47, PM00104 0.23, doxorubicin 6, paclitaxel 12.5 mg/kg/day): 31.0%
% Inhibition (MRI-H-254 tumors; day 47, PM00104 0.45, doxorubicin 6, paclitaxel 12.5 mg/kg/day): 31.0%
% Inhibition (MRI-H-254 tumors; day 47, PM00104 0.90, paclitaxel 12.5 mg/kg/day): 31.0%
IC50 [1]: 1.7 nM
